Consider six compounds from ChEMBL document CHEMBL3046286, “4-Fluorophenylhydrazones as potential COX-2 inhibitors: a novel, efficient, one pot solid phase synthesis, docking study and pharmacological evaluation” (2013).

Assay type in all cases: functional
The subject of test [1] is Rattus norvegicus. The experiment in a line: Antiinflammatory activity in Wistar albino rat assessed as carrageenan-induced paw edema at 50 mg/kg, po administered 30 mins prior to carrageenan-challenge measured after 2 hrs relative to control.
Test [2] concerns Rattus norvegicus. The experiment in a line: Antiinflammatory activity in Wistar albino rat assessed as carrageenan-induced paw edema at 50 mg/kg, po administered 30 mins prior to carrageenan-challenge measured after 3 hrs relative to control. To be noted: read-out: INH. For orientation: The carrageenan paw model is a standard test of acute inflammation.
In test [3] the test system is Rattus norvegicus. The experiment in a line: Antiinflammatory activity in Wistar albino rat assessed as carrageenan-induced paw edema at 50 mg/kg, po administered 30 mins prior to carrageenan-challenge measured after 1 hr relative to control.
Test [4] concerns Rattus norvegicus. The experiment in a line: Antiinflammatory activity in Wistar albino rat assessed as carrageenan-induced paw edema at 50 mg/kg, ip administered 30 mins prior to carrageenan-challenge measured after 1 hr relative to control. The conditions noted are these: route intraperitoneal.
In test [5] the test system is Rattus norvegicus. The experiment in a line: Antiinflammatory activity in Wistar albino rat assessed as carrageenan-induced paw edema at 50 mg/kg, ip administered 30 mins prior to carrageenan-challenge measured after 2 hrs relative to control. The conditions noted are these: route intraperitoneal.
The subject of test [6] is Rattus norvegicus. The experiment in a line: Antiinflammatory activity in Wistar albino rat assessed as carrageenan-induced paw edema at 50 mg/kg, ip administered 30 mins prior to carrageenan-challenge measured after 3 hrs relative to control. To be noted: route intraperitoneal.

Turning to `O=C(c1ccc(Br)cc1)C(NNc1ccc(F)cc1)C(=O)C(F)(F)F` (stereo not drawn), the figures for the inhibition in vivo at 50 mg/kg with Rattus norvegicus [1], in the test on Rattus norvegicus [2] and in the test on Rattus norvegicus [3] were 30.4%, 43.2% and 17.3%, respectively.

On to `COc1ccc(C(=O)C(NNc2ccc(F)cc2)C(=O)C(F)(F)F)cc1` (stereo not drawn), for which the inhibition in vivo at 50 mg/kg was 26.6% in the test with Rattus norvegicus [1], 40.6% in the test with Rattus norvegicus [2] and 15.4% with Rattus norvegicus [3].

Turning to `O=C(c1ccc([N+](=O)[O-])cc1)C(NNc1ccc(F)cc1)C(=O)C(F)(F)F` (stereo not drawn), the inhibition in vivo at 50 mg/kg came out at 8.86% with Rattus norvegicus [1], 18.2% in the test with Rattus norvegicus [2] and 5.05% in the test on Rattus norvegicus [3].

For the compound `O=C(c1ccc(F)cc1)C(NNc1ccc(F)cc1)C(=O)C(F)(F)F` (stereo not drawn), the results for the inhibition in vivo at 50 mg/kg in the test on Rattus norvegicus [1], in the test with Rattus norvegicus [2] and with Rattus norvegicus [3] were 28.5%, 42.4% and 18.3%, respectively.

As for `O=C(c1cccs1)C(NNc1ccc(F)cc1)C(=O)C(F)(F)F` (stereo not drawn), the figures for the inhibition in vivo at 50 mg/kg with Rattus norvegicus [1], in the test with Rattus norvegicus [2] and in the test on Rattus norvegicus [3] were 7.93%, 17.4% and 4.11%, respectively.

Consider `O=C(O)Cc1ccccc1Nc1c(Cl)cccc1Cl` [DICLOFENAC SODIUM], for which the results for the inhibition in vivo at 50 mg/kg in the test on Rattus norvegicus [4], in the test on Rattus norvegicus [5] and with Rattus norvegicus [6] were 20.1%, 30.4% and 46.8%, respectively.
